Measured values: PubChem BioAssay AID256 (DTP/NCI, 2004)
Where “and” joins values, the source holds several entries; their conditions need not be identical. Identical values can stand only once. Toxic doses and inconclusive results are not listed.

Tested on: CD2F1 mice, L1210 leukemia ip, survival T/C
Experiment: NCI In Vivo Anticancer Drug Screen. Data for tumor model L1210 Leukemia (intraperitoneal) in CD2F1 (CDF1) mice
Settings: higher = longer survival
Outline: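 Vehicle-treated tumor-bearing mice served as controls (C) for compound-treated mice (T). Reported figure is T divided by C.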

[1] = endpoint: mean survival time, dose: 100.0 mg/kg/injection, schedule: Q04DX003 (ip), vehicle: saline with Tween-80
[2] = endpoint: mean survival time, dose: 200.0 mg/kg/injection, schedule: Q04DX003 (ip), vehicle: saline with Tween-80
[3] = endpoint: mean survival time, dose: 400.0 mg/kg/injection, schedule: Q04DX003 (ip), vehicle: saline with Tween-80
[4] = endpoint: mean survival time, dose: 6.25 mg/kg/injection, schedule: Q01DX009 (ip), vehicle: saline with Tween-80
[5] = endpoint: mean survival time, dose: 100.0 mg/kg/injection, schedule: Q01DX001 (ip), vehicle: saline
[6] = endpoint: mean survival time, dose: 200.0 mg/kg/injection, schedule: Q01DX001 (ip), vehicle: saline
[7] = endpoint: mean survival time, dose: 50.0 mg/kg/injection, schedule: Q01DX009 (ip), vehicle: saline with Tween-80
[8] = endpoint: mean survival time, dose: 100.0 mg/kg/injection, schedule: Q01DX009 (ip), vehicle: saline with Tween-80
[9] = endpoint: mean survival time, dose: 200.0 mg/kg/injection, schedule: Q01DX009 (ip), vehicle: saline with Tween-80
[10] = endpoint: mean survival time, dose: 6.25 mg/kg/injection, schedule: Q01DX009 (ip), vehicle: Klucel (hydroxypropylcellulose) (HPC)
[11] = endpoint: mean survival time, dose: 25.0 mg/kg/injection, schedule: Q01DX009 (ip), vehicle: Klucel (hydroxypropylcellulose) (HPC)
[12] = endpoint: mean survival time, dose: 25.0 mg/kg/injection, schedule: Q01DX009 (ip), vehicle: saline with Tween-80

`CC(=O)Oc1ccccc1C(=O)O` was tested, and the T/C (endpoint: mean survival time, dose: 31.3 mg/kg/injection, schedule: Q01DX009 (ip), vehicle: saline sonified) was 106 % of control, the T/C (endpoint: mean survival time, dose: 31.3 mg/kg/injection, schedule: Q01DX009 (ip), vehicle: saline with Tween-80) was 100 % of control and the T/C (endpoint: mean survival time, dose: 50.0 mg/kg/injection, schedule: Q03HX024 (ip), vehicle: saline) was 97 % of control. For the same compound, the T/C (endpoint: mean survival time, dose: 62.5 mg/kg/injection, schedule: Q01DX009 (ip), vehicle: saline sonified) was 101 % of control, the T/C (endpoint: mean survival time, dose: 62.5 mg/kg/injection, schedule: Q01DX009 (ip), vehicle: saline with Tween-80) was 98 % of control and the T/C (endpoint: mean survival time, dose: 100.0 mg/kg/injection, schedule: Q03HX024 (ip), vehicle: saline) was 97 % of control. The T/C (endpoint: mean survival time, dose: 125.0 mg/kg/injection, schedule: Q01DX009 (ip), vehicle: saline sonified) was 98 % of control, the T/C (endpoint: mean survival time, dose: 125.0 mg/kg/injection, schedule: Q01DX009 (ip), vehicle: saline with Tween-80) was 96 % of control and 100 % of control and the T/C (endpoint: mean survival time, dose: 250.0 mg/kg/injection, schedule: Q01DX009 (ip), vehicle: saline with Tween-80) was 96 % of control. For the same compound, the T/C (endpoint: mean survival time, dose: 500.0 mg/kg/injection, schedule: Q01DX001 (ip), vehicle: saline with Tween-80) was 104 % of control and the T/C (endpoint: mean survival time, dose: 1000.0 mg/kg/injection, schedule: Q01DX001 (ip), vehicle: saline with Tween-80) was 104 % of control.
For `Cc1c(Cl)cccc1NS(=O)(=O)c1cccc([N+](=O)[O-])c1`, the T/C [1] was 88 % of control, the T/C [2] was 92 % of control and the T/C [3] was 86 % of control.
`CCc1nc(N)nc(N)c1-c1ccc(Cl)c([N+](=O)[O-])c1` was tested, and the T/C (endpoint: mean survival time, dose: 3.12 mg/kg/injection, schedule: Q01DX009 (ip), vehicle: saline with Tween-80) was 101 % of control and the T/C [4] was 106 % of control.
`NC(=O)CSCC(N)=O` was tested, and the T/C [1] was 94 % of control, the T/C [2] was 96 % of control and the T/C [3] was 90 % of control.
`OCCc1ccncc1` was tested, and the T/C [5] was 103 % of control and the T/C [6] was 105 % of control.
With `C/C=C(\C)c1cc(=O)c2c(C)cc3c(c2o1)C(=O)c1c(O)c(C2CC(C)(N(C)C)C(OC(C)=O)C(C)O2)cc(C2CC(N(C)C)C(O)C(C)O2)c1C3=O` (stereo unspecified) the T/C (endpoint: mean survival time, dose: 0.15 mg/kg/injection, schedule: Q01DX009 (ip), vehicle: saline) was 103 % of control, the T/C (endpoint: mean survival time, dose: 0.31 mg/kg/injection, schedule: Q01DX009 (ip), vehicle: saline) was 98 % of control and the T/C (endpoint: mean survival time, dose: 0.62 mg/kg/injection, schedule: Q01DX009 (ip), vehicle: saline) was 115 % of control and 100 % of control. The T/C (endpoint: mean survival time, dose: 1.25 mg/kg/injection, schedule: Q01DX009 (ip), vehicle: saline) was 106 % of control and 111 % of control, the T/C (endpoint: mean survival time, dose: 2.5 mg/kg/injection, schedule: Q01DX009 (ip), vehicle: saline) was 105 % of control and 108 % of control and the T/C (endpoint: mean survival time, dose: 5.0 mg/kg/injection, schedule: Q01DX009 (ip), vehicle: saline) was 115 % of control.
`Cc1cccc(/C=N/OCCC(C)C)n1` was tested, and the T/C [7] was 102 % of control, the T/C [8] was 96 % of control and the T/C [1] was 93 % of control. For the same compound, the T/C [9] was 102 % of control and the T/C [2] was 89 % of control.
`COC1=C(OC)C(=O)C(N(C)C)=C(CO)C1=O` was tested, and the T/C (endpoint: median survival time, dose: 15.0 mg/kg/injection, schedule: Q01DX005 (ip), vehicle: saline) was 102 % of control, the T/C (endpoint: median survival time, dose: 30.0 mg/kg/injection, schedule: Q01DX005 (ip), vehicle: saline) was 100 % of control and the T/C (endpoint: median survival time, dose: 60.0 mg/kg/injection, schedule: Q01DX005 (ip), vehicle: saline) was 103 % of control. For the same compound, the T/C (endpoint: median survival time, dose: 120.0 mg/kg/injection, schedule: Q01DX005 (ip), vehicle: saline) was 107 % of control.
In the case of `O=[N+]([O-])c1cc(S(=O)(=O)c2ccc(F)c([N+](=O)[O-])c2)ccc1F`, the T/C [10] is reported as 98 % of control, the T/C (endpoint: mean survival time, dose: 12.5 mg/kg/injection, schedule: Q01DX009 (ip), vehicle: Klucel (hydroxypropylcellulose) (HPC)) is reported as 98 % of control and the T/C [11] is reported as 98 % of control.
For `Cc1cc(N(CC(C)Br)CC(C)Br)ccc1N=Nc1ccccc1C(=O)O` (stereo unspecified), the T/C (endpoint: mean survival time, dose: 3.13 mg/kg/injection, schedule: Q01DX009 (ip), vehicle: saline with Tween-80) was 105 % of control and 112 % of control, the T/C [10] was 106 % of control and the T/C [4] was 114 % of control and 117 % of control and 109 % of control. For the same compound, the T/C [11] was 119 % of control and the T/C [12] was 86 % of control.
`Cc1ccc(S(=O)(=O)NC(Cc2ccccc2)C(=O)CCl)cc1` (stereo unspecified) was tested, and the T/C [7] was 92 % of control, the T/C [8] was 96 % of control and the T/C [9] was 90 % of control.
`COC(=O)c1ccc(C)c(NC2=NCCO2)c1` was tested, and the T/C [4] was 96 % of control, the T/C (endpoint: mean survival time, dose: 12.5 mg/kg/injection, schedule: Q01DX009 (ip), vehicle: saline with Tween-80) was 97 % of control and the T/C [12] was 102 % of control. For the same compound, the T/C [7] was 105 % of control, the T/C (endpoint: mean survival time, dose: 100.0 mg/kg/injection, schedule: Q01DX001 (ip), vehicle: saline with Tween-80) was 97 % of control and the T/C (endpoint: mean survival time, dose: 200.0 mg/kg/injection, schedule: Q01DX001 (ip), vehicle: saline with Tween-80) was 97 % of control. For the same compound, the T/C (endpoint: mean survival time, dose: 400.0 mg/kg/injection, schedule: Q01DX001 (ip), vehicle: saline with Tween-80) was 93 % of control.
In the case of `C[n+]1c2ccccc2c(Nc2ccc(NS(=O)(=O)CCCCN=C(N)N)cc2)c2ccc(N)cc21`, the T/C (endpoint: mean survival time, dose: 6.25 mg/kg/injection, schedule: Q01DX009 (ip), vehicle: water) is reported as 314 % of control.
For `CN(C(=O)Nc1cccc([N+](=O)[O-])c1)c1ccccc1`, the T/C [5] was 102 % of control, the T/C [6] was 98 % of control and the T/C (endpoint: mean survival time, dose: 400.0 mg/kg/injection, schedule: Q01DX001 (ip), vehicle: saline) was 98 % of control.
`CCOC(=O)CC(=O)C(F)(F)F` was tested, and the T/C (endpoint: mean survival time, dose: 75.0 mg/kg/injection, schedule: Q01DX001 (ip), vehicle: saline) was 95 % of control, the T/C (endpoint: mean survival time, dose: 150.0 mg/kg/injection, schedule: Q01DX001 (ip), vehicle: saline) was 97 % of control and the T/C (endpoint: mean survival time, dose: 300.0 mg/kg/injection, schedule: Q01DX001 (ip), vehicle: saline) was 101 % of control.
